In ChEMBL document CHEMBL1828523, “Synthesis and stereospecificity of 4,5-disubstituted oxazolidinone ligands binding to T-box riboswitch RNA” (J Med Chem, 2011) one finds Kd data, which are given here for six compounds.

Bounds are passed on as bounds.

The target of one experiment is Nucleic Acid. Kind of experiment: Binding affinity to Bacillus subtilis antiterminator AM1A RNA model after 130 mins by FRET assay. Type of experiment: nucleic-acid assay.
`CC(=O)c1ccc(NC(=O)OC[C@H]2OC(=O)N[C@@H]2CN2CCN(c3ccccc3)CC2)cc1` yielded a Kd of 3 µM. In other words, the single-digit micromolar range.

Compound `O=C(Cc1ccccc1)OC[C@H]1OC(=O)N[C@H]1CN1CCN(c2ccccc2)CC1` (racemic) showed a Kd of more than 100 µM.

For `O=C(Cc1ccccc1)OC[C@H]1OC(=O)N[C@@H]1CN1CCN(c2ccccc2)CC1`, the Kd turned out to be 12 µM.

`CC(=O)c1ccc(NC(=O)OC[C@H]2OC(=O)N[C@H]2CN2CCN(c3ccccc3)CC2)cc1` (racemic): binding was put at a Kd of 1.8 µM.

For `CC(=O)c1ccc(NC(=O)OC[C@@H]2OC(=O)N[C@H]2CN2CCN(c3ccccc3)CC2)cc1`, the Kd stood at 1.6 µM.

Compound `O=C(Cc1ccccc1)OC[C@@H]1OC(=O)N[C@H]1CN1CCN(c2ccccc2)CC1` came in with a Kd of 16 µM.

A further experiment concerns the target Nucleic Acid. The experiment is described as follows: Binding affinity to Bacillus subtilis antiterminator AM1A RNA model after 70 mins by FRET assay. Type of experiment: nucleic-acid assay.
`O=C(Cc1ccccc1)OC[C@H]1OC(=O)N[C@H]1CN1CCN(c2ccccc2)CC1` (racemic) came in with a Kd of 5.1 µM.
